This passage reports Ki results from patent US9815796B2 (Merck Sharp & Dohme Corp., priority 2013, dated 2017).

The target in one test is Rhesus PDE2A3 (Macaca mulatta, UniProt B3VTJ2). Nature of the test: PDE2 fluorescence polarization (IMAP FP) inhibition assay, rhesus enzyme. The format is biochemical, rhesus macaque. Put shortly: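 IMAP FP (mP from parallel and perpendicular fluorescence against substrate-only control) was read ≥1 h after adding binding reagent. The preceding 60 min room-temperature reaction contained FAM-cAMP (50 nM) and cGMP (1 uM) in pH 7.2 Tris buffer with MgCl2 and DTT. Enzyme was supernatant of sonicated AD293 cells expressing rhesus PDE2A3; compounds were 3-fold titrated, DMSO 1% final.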
Chain of Rhesus PDE2A3 (B3VTJ2 1-941): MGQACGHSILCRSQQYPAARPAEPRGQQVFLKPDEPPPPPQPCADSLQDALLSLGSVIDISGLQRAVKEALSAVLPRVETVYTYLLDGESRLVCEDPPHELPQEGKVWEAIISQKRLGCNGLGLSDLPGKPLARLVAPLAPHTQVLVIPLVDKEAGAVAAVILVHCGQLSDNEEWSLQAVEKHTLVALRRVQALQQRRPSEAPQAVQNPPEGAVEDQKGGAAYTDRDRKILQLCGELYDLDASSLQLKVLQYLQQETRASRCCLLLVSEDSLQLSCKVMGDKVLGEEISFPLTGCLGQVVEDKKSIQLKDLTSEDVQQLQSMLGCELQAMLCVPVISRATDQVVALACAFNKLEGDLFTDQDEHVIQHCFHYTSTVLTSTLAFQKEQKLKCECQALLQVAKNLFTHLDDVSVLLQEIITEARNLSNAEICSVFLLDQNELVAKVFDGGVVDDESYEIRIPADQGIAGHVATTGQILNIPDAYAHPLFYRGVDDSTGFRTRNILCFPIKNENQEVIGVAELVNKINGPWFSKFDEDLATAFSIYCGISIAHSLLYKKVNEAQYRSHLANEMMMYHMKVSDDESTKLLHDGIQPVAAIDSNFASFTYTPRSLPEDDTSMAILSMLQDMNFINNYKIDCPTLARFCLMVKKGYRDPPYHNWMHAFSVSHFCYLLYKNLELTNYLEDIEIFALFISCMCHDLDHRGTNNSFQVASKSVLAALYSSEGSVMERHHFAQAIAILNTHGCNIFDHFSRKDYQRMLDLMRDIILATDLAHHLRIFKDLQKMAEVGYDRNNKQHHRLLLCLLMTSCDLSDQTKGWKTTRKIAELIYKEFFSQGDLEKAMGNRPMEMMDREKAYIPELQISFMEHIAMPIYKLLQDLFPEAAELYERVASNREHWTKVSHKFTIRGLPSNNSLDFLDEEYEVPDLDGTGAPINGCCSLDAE
(In general: In fluorescence polarisation assays a small probe gives low polarisation when free and higher when bound to something large.)

The target in a further test is human PDE2A1 (Homo sapiens (Human), UniProt O00408). Nature of the test: IMAP FP PDE selectivity panel, human PDE2A1. Format: biochemical. Put shortly: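 IMAP FP format: substrate 50 nM FAM-cAMP plus 1000 nM cGMP, enzyme (insect-cell GST-tagged human PDE2A1) at ~20% conversion, 60 min reaction at room temperature. Apparent inhibition constants calculated from parallel/perpendicular fluorescence with KM 10,000 nM.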
Chain of human PDE2A1 (O00408 other isoform, or with tags, fused parts or gaps): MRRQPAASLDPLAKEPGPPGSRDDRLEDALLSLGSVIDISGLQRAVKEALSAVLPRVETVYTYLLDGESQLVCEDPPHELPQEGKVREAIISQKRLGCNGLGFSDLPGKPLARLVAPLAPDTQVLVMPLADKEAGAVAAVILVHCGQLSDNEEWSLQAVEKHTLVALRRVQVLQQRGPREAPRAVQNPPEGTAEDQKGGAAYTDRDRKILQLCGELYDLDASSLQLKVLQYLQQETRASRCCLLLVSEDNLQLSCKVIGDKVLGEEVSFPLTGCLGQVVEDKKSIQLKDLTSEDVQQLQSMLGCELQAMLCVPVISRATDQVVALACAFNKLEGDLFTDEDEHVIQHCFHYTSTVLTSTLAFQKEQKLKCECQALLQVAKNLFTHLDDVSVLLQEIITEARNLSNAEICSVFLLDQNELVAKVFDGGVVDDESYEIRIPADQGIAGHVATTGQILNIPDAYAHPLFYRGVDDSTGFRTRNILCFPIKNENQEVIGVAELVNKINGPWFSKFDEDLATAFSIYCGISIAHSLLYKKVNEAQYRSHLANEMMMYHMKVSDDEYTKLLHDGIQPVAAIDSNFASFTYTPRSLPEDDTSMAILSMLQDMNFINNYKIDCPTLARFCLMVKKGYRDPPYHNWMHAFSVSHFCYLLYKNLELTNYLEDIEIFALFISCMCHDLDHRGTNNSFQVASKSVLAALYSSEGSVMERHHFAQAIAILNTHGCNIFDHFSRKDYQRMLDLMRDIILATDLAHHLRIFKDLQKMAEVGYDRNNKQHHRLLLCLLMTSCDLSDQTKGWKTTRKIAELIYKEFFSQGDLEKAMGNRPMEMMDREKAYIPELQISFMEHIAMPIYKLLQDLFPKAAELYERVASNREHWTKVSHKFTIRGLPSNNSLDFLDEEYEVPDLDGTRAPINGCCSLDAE

Where [1] appears, read: Rhesus PDE2, Lab B, read-out: Rhesus PDE2 Ki (nM) - Lab B.
Where [2] appears, read: Human PDE2, Lab B, read-out: Human PDE2 Ki (nM) - Lab B.
The mark [3] stands for this setting: Rhesus PDE2, Lab A, read-out: Rhesus PDE2 Ki (nM) - Lab A.
Setting [4] is: Human PDE2, Lab A, read-out: Human PDE2 Ki (nM) - Lab A.

Like-named read-outs stand apart in the source and are kept apart here.

As a reminder, the Ki is a measure of affinity in units of concentration, obtained from inhibition or displacement. With `CC(C)(C)[C@@H](NC(=O)c1cc(=O)[nH]c(C2CC2)n1)c1ccc(OC(F)(F)F)c(F)c1` [Example 437, 2-cyclopropyl-N-{(1R)-1-[3-fluoro-4-(trifluoromethoxy)phenyl]-2,2-dimethylpropyl}-6-oxo-1,6-dihydropyrimidine-4-carboxamide], the inhibition constant Ki on Rhesus PDE2A3 (setting [1]) and on human PDE2A1 (setting [2]) was 1.2 nM in each case.

For the compound `COCc1nc(C(=O)N[C@@H](c2ccc(OC(F)(F)F)c(F)c2)C2CC2)cc(=O)[nH]1` [Example 117, N-{(R)-cyclopropyl[3-fluoro-4-(trifluoromethoxy)phenyl]methyl}-2-(methoxymethyl)-6-oxo-1,6-dihydropyrimidine-4-carboxamide], the inhibition constant (Ki) at Rhesus PDE2A3 (setting [3]) was 80 nM; at human PDE2A1 (setting [4]), roughly 13 nM; on human PDE2A1 (setting [2]), 42 nM.

With `COc1ccc(C(C)(C)c2nc(C(=O)N[C@@H](c3ccc(SC(F)(F)F)c(F)c3)C3CC3)cc(=O)[nH]2)cc1` [Example 497, N-[(R)-cyclopropyl{3-fluoro-4-[(trifluoromethyl)sulfanyl]phenyl}methyl]-2-[1-(4-methoxyphenyl)-1-methylethyl]-6-oxo-1,6-dihydropyrimidine-4-carboxamide], the Ki at Rhesus PDE2A3 (setting [1]) was found to be 80 nM; at human PDE2A1 (setting [2]), 60 nM.

Turning to `Cc1cc([C@@H](C)NC(=O)c2cc(=O)[nH]c(C3CC3)n2)ccc1C(F)(F)F` [Example 231, 2-cyclopropyl-N-{(1R)-1-[3-methyl-4-(trifluoromethyl)phenyl]ethyl}-6-oxo-1,6-dihydropyrimidine-4-carboxamide], the Ki at Rhesus PDE2A3 (setting [3]) turned out to be 39 nM; at human PDE2A1 (setting [4]) it was 23 nM.

On to `O=C(NC1(c2ccc(C(F)(F)F)cc2)COC1)c1cc(=O)[nH]c(-c2ccccc2)n1` [Example 402, 6-oxo-2-phenyl-N-{3-[4-(trifluoromethyl)phenyl]oxetan-3-yl}-1,6-dihydropyrimidine-4-carboxamide], for which the Ki at Rhesus PDE2A3 (setting [1]) stood at 38 nM; at human PDE2A1 (setting [2]), 29 nM.

Turning to `CC(C)(C)[C@@H](NC(=O)c1cc(=O)[nH]c(C2CC2)n1)c1ccc(OC(F)(F)F)cc1` [Example 463, 2-cyclopropyl-N-{(1R)-2,2-dimethyl-1-[4-(trifluoromethoxy)phenyl]propyl}-6-oxo-1,6-dihydropyrimidine-4-carboxamide], the inhibition constant Ki came to 1.2 nM on Rhesus PDE2A3 (setting [1]) and 0.84 nM on human PDE2A1 (setting [2]).

For the compound `CC(C)[C@@H](NC(=O)c1cc(=O)[nH]c(-c2ncccn2)n1)c1ccc(OC(F)(F)F)c(F)c1` [Example 74, N-{(1R)-1-[3-fluoro-4-(trifluoromethoxy)phenyl]-2-methylpropyl}-6-oxo-1,6-dihydro-2,2′-bipyrimidine-4-carboxamide], the inhibitory constant (Ki) at Rhesus PDE2A3 (setting [3]) came to 5 nM; on Rhesus PDE2A3 (setting [1]) it was 4.8 nM; on human PDE2A1 (setting [2]), 4.7 nM.

As to `C[C@@H](NC(=O)c1cc(=O)[nH]c(C2CC2)n1)c1ccc(OC(F)(F)F)cc1F` [Example 297, 2-cyclopropyl-N-{(1R)-1-[2-nuoro-4-(trifluoromethoxy)phenyl]ethyl}-6-oxo-1,6-dihydropyrimidine-4-carboxamide], the inhibition constant Ki at Rhesus PDE2A3 (setting [3]) was 30 nM; on human PDE2A1 (setting [4]), 16 nM.

Turning to `Cc1nc(C(=O)N[C@H](C)c2ccc(C3CC3)c(F)c2)cc(=O)[nH]1` [Example 620, N-[(1R)-1-(4-cyclopropyl-3-fluorophenyl)ethyl]-2-methyl-6-oxo-1,6-dihydropyrimidine-4-carboxamide], the inhibition constant Ki came to 15 nM on Rhesus PDE2A3 (setting [1]) and 19 nM on human PDE2A1 (setting [2]).

Take `Cc1nc(C(=O)NC(C(=O)N(C)C)c2ccc(C(F)(F)F)cc2)cc(=O)[nH]1` (centres unmarked) [Example 329, N-{2-(dimethylamino)-2-oxo-1-[4-(trifluoromethyl)phenyl]ethyl}-2-methyl-6-oxo-1,6-dihydropyrimidine-4-carboxamide]: the figures for the Ki at Rhesus PDE2A3 (setting [3]) and on human PDE2A1 (setting [4]) were 1420 nM and 565 nM, respectively.

With `O=C(NC1(c2ccc(C(F)(F)F)cc2)CCCC1)c1cc(=O)[nH]c(-c2ccccc2)n1` [Example 415, 6-oxo-2-phenyl-N-{1-[4-(trifluoromethyl)phenyl]cyclopentyl}-1,6-dihydropyrimidine-4-carboxamide], the inhibitory constant (Ki) was found to be 29 nM on Rhesus PDE2A3 (setting [1]) and 30 nM on human PDE2A1 (setting [2]).

Regarding `CC(C)[C@@H](NC(=O)c1cc(=O)[nH]c(-c2ncccn2)n1)c1ccc(C(F)(F)F)c(F)c1` [Example 248, N-{(1R)-1-[3-fluoro-4-(trifluoromethyl)phenyl]-2-methylpropyl}-6-oxo-1,6-dihydro-2,2′-bipyrimidine-4-carboxamide], the Ki at Rhesus PDE2A3 (setting [3]) worked out at 2 nM; at Rhesus PDE2A3 (setting [1]) it was 3.4 nM; at human PDE2A1 (setting [2]) it was 3.5 nM.

`Cc1nc(C(=O)NC(C)c2ccc(C3CC3)cc2)cc(=O)[nH]1` (centres unmarked) [Example 42, N-[1-(4-cyclopropylphenyl)ethyl]-2-methyl-6-oxo-1,6-dihydropyrimidine-4-carboxamide]: the inhibition constant Ki at Rhesus PDE2A3 (setting [3]) worked out at 72 nM; on human PDE2A1 (setting [4]), 31 nM.

As to `O=C(N[C@@H](c1ccc(SC(F)(F)F)cc1)C1CC1)c1cc(=O)[nH]c(-c2ccccc2)n1` [Example 178, N-[(R)-cyclopropyl{4-[(trifluoromethyl)sulfanyl]phenyl}methyl]-6-oxo-2-phenyl-1,6-dihydropyrimidine-4-carboxamide], the inhibition constant (Ki) at Rhesus PDE2A3 (setting [3]) was found to be 3.3 nM; on human PDE2A1 (setting [4]), 2.4 nM.

With `COCc1nc(C(=O)N[C@H](C)c2ccc(C(F)(F)F)c(F)c2)cc(=O)[nH]1` [Example 125, N-{(1R)-1-[3-fluoro-4-(trifluoromethyl)phenyl]ethyl}-2-(methoxymethyl)-6-oxo-1,6-dihydropyrimidine-4-carboxamide], the Ki on Rhesus PDE2A3 (setting [3]) was determined as 176 nM; at human PDE2A1 (setting [4]) it was 45 nM.

As to `Cc1nc(C(=O)N[C@H](C)c2ccc(C(F)(F)F)cc2F)cc(=O)[nH]1` [Example 19, N-{(1R)-1-[2-fluoro-4-(trifluoromethyl)phenyl]ethyl}-2-methyl-6-oxo-1,6-dihydropyrimidine-4-carboxamide], the Ki on Rhesus PDE2A3 (setting [3]) came out at 96 nM; at human PDE2A1 (setting [4]), 81 nM.

In the case of `CC[C@@H](NC(=O)c1cc(=O)[nH]c(C(C)(C)c2ccc(OC)cc2)n1)c1ccc(OC(F)(F)F)cc1` [Example 505, 2-[1-(4-methoxyphenyl)-1-methylethyl]-6-oxo-N-{(1R)-1-[4-(trifluoromethoxy)phenyl]propyl}-1,6-dihydropyrimidine-4-carboxamide], the inhibitory constant (Ki) at Rhesus PDE2A3 (setting [1]) was 84 nM; at human PDE2A1 (setting [2]), 56 nM.

As to `CC(C)[C@@H](NC(=O)c1cc(=O)[nH]c(C2CC2)n1)c1ccc(OC(F)(F)F)c(F)c1` [Example 128, 2-cyclopropyl-N-{(1R)-1-[3-fluoro-4-(trifluoromethoxy)phenyl]-2-methylpropyl}-6-oxo-1,6-dihydropyrimidine-4-carboxamide], the results for the Ki at Rhesus PDE2A3 (setting [3]) and at human PDE2A1 (setting [4]) were 2 nM and 1.2 nM, respectively.

For `O=C(NC1(c2ccc(OC(F)(F)F)cc2)CCC1)c1cc(=O)[nH]c(-c2ncccn2)n1` [Example 290, 6-oxo-N-(1-(4-(trifluoromethoxy)phenyl)cyclobutyl)-1,6-dihydro-[2,2′-bipyrimidine]-4-carboxamide], the Ki at Rhesus PDE2A3 (setting [3]) was determined as 942 nM; at human PDE2A1 (setting [4]), 540 nM.

As for `CC[C@@H](NC(=O)c1cc(=O)[nH]c(-c2ncccn2)n1)c1ccc(C(F)(F)F)c(F)c1` [Example 264, N-{(1R)-1-[3-fluoro-4-(trifluoromethyl)phenyl]propyl}-6-oxo-1,6-dihydro-2,2′-bipyrimidine-4-carboxamide], the values for the Ki on Rhesus PDE2A3 (setting [3]), on Rhesus PDE2A3 (setting [1]) and on human PDE2A1 (setting [2]) were 4.6 nM, 7.9 nM and 7.7 nM, respectively.
